Measurements: ChEMBL document CHEMBL5576080, “Oropouche virus - The "Newest" invisible public enemy?” (Bioorg Med Chem, 2024)
Active and inactive are the calls of the source. No cut-off for these calls is given here.

Key:
[1] = test system: Oropouche virus; test: (§1) Inhibition of Oropouche virus N-terminal His-tagged fusion endonuclease expressed in Escherichia coli Rosetta (DE3) cells using FAM-TCT CTA GCA GTG GCG CC-TAM as DNA substrate measured every 60 secs for 60 mins by fluorescence based analysis
[2] = Cytotoxicity against African green monkey Vero cells assessed as reduction in cell viability measured after 72 hrs by MTT assay; type: toxicity, cell-based; conditions: chlorocebus sabaeus
[3] = Selectivity index, ratio of CC50 for African green monkey Vero cells to EC50 for Oropouche virus infected in Vero cells; type: toxicity, cell-based; conditions: read-out: Ratio CC50/EC50
[4] = test system: Oropouche virus; test: Antiviral activity against Oropouche virus infected in Vero cells incubated for 1 hr and measured after 3 days by crystal violet staining based analysis; type: functional, organism-based
[5] = Inhibition of Oropouche virus N-terminal His-tagged fusion endonuclease expressed in Escherichia coli Rosetta (DE3) cells using FAM-TCT CTA GCA GTG GCG CC-TAM as DNA substrate measured every 60 secs for 60 mins by FRET assay
[6] = as §1

SMILES | inhibition [1] | CC50 at 72 h [2] [µM] | selectivity ratio [3] | EC50 [4] [µM] | IC50 [5] [µM] | IC50 [6] [µM]
Oc1cc(O)c2c(O)c3cc4ccccc4cc3nc2c1 | inactive | 1530 | 70.8 | 21.6 |  | 
COc1cc(O)c2c(c1)oc(=O)c1c3cc(O)c(O)cc3oc21 [WEDELOLACTONE] |  | 374 |  | 18.9 | 0.31 | 
COc1cc2[nH]c3c(OC)c(OC)ccc3c(=O)c2c(OC)c1OC [CUSCULINE] |  | 1640 | 49.6 | 33 |  | 1.4
